We go through 1 sequence from article PMC10412585 (Nature Communications, 2023).

What all share (type): cell-based, human
One assay deals with HLA-E. In words: HLA-E surface stabilization assay with RMA-S/HLA-E cells. As to conditions: peptide 3-300 µM (Fig. 3: 30 µM) in OptiMEM, 16 h, 37 °C, anti-HLA-E 3D12, flow cytometry, n = 4 replicate experiments. The procedure: To probe top-predicted proteome-derived peptides (Tables 2 and 3) for HLA-E binding, we assessed their ability to stabilize surface-expressed HLA-E on RMA-S/HLA-E cells, a TAP-deficient mouse cell line engineered to express HLA-E and human β2M (Fig. 3 and Supplemental Fig. 8)[47].
Fig. 3 Peptide stabilization of HLA-E surface expression. Assessment of peptide-HLA-E binding via HLA-E surface stabilization assay with RMA-S/HLA-E cells incubated with 30 μM peptide. HLA-E expression is detected with an anti-HLA-E antibody. Measurements from n = 4 replicate experiments are shown, with solid black lines indicating mean values. […] Source data are provided as a Source Data file.
RMA-S/HLA-E cells were incubated with serial dilutions of peptides (3–300 µM, Genscript) in OptiMEM (ThermoFisher) for 16 h at 37 °C. Cells were washed with PBS, stained for HLA-E (Clone 3D12, Biolegend, 1:200 dilution) for 15 min at room temperature and analyzed by flow cytometry (analysis in FlowJo version 10). Peptide UBAC2_275-279 was ordered as a 5mer peptide (WNRLF) given the similarity with other WN peptides and hypothesis of a truncated peptide binding in the HLA-E groove. […] Measurements from replicate experiments are plotted in Fig. 3 and Supplemental Fig. 8.
On the technique in general: A flow cytometer gives signals particle by particle.

A further assay relates to NKG2A-/NKG2C- NK cells. Nature of the assay: NK cell activation assay with peptide-pulsed K562/HLA-E cells, NKG2A-/NKG2C- internal control. As to conditions: K562/HLA-E target cells, 300 µM peptide, flow cytometry. The procedure:
We hypothesized that our predicted proteome-derived peptides could affect NK cell activation through interactions with CD94/NKG2A and CD94/NKG2C. To investigate, we performed cell-based activation assays on primary NK cells (Fig. 4A). NK cells were co-incubated with peptide-pulsed HLA-E-expressing K562 cells, as described previously. The parental K562 human myelogenous leukemia cell line is a typical target to measure NK cell cytotoxicity and activation, allowing for assessment of both NKG2A-mediated inhibition and NKG2C-mediated activation. A side-by-side comparison of the HLA-E expression levels of K562/HLA-E and RMA-S/HLA-E cell lines is shown in Supplemental Fig. 11. All peptides which bound and stabilized HLA-E in the cell-based stability experiment (Fig. 3) were analyzed for their effects on NKG2A^+/NKG2C^- or NKG2A^-/NKG2C^+ NK cell activity, as measured by their ability to induce NK cell degranulation as well as IFN-γ, TNF and CCL3 production, in comparison to class I MHC-derived positive control peptides […] and […], and negative control peptide […] […]
All analyses of human data were carried out in compliance with the relevant ethical regulations. […] Samples were analyzed by flow cytometry on an LSR Fortessa (BD Biosciences). Inhibition of NKG2A^+ NK cells and activation of NKG2C^+ NK cells was assessed by gating on the respective single-positive populations (Supplemental Fig. 14). […]

Another assay relates to NKG2A-/NKG2C+ NK cells. Nature of the assay: NK cell activation assay with peptide-pulsed K562/HLA-E cells, NKG2A-/NKG2C+ NK cells. As to conditions: K562/HLA-E target cells, 300 µM peptide ([…] µM BFAR263-271), E:T 2:1, 6 h; degranulation (CD107a), IFN-γ, TNF, CCL3; flow cytometry. The procedure: (§1) We hypothesized that our predicted proteome-derived peptides could affect NK cell activation through interactions with CD94/NKG2A and CD94/NKG2C. To investigate, we performed cell-based activation assays on primary NK cells (Fig. 4A). NK cells were co-incubated with peptide-pulsed HLA-E-expressing K562 cells, as described previously. The parental K562 human myelogenous leukemia cell line is a typical target to measure NK cell cytotoxicity and activation, allowing for assessment of both NKG2A-mediated inhibition and NKG2C-mediated activation. […] NKG2A^-/NKG2C^- NK cells served as internal control as these should be unaffected by peptide-HLA-E complexes (Supplemental Fig. 12).
(§2) Fig. 4 NK cell stimulation assays. Assessment of effects of peptides on NK cell activity through incubation of NK cells, peptides, and (A) K562/HLA-E or (B) RMA-S/HLA-E target cells. […] Replicates for individual peptides are from different donors, with solid black lines indicating mean values. […] Representative gating for NKG2A^+/NKG2C^- and NKG2A^-/NKG2C^+ NK cells is shown in Supplemental Fig. 14. Source data are provided as a Source Data file.
(§3) All analyses of human data were carried out in compliance with the relevant ethical regulations. Healthy blood donors gave informed consent at DRK Blutspendedienst Nord-Ost, Dresden, Germany, and buffy coats were obtained as approved by Charité ethics committee (EA4/059/17). PBMCs were isolated from human CMV-seropositive buffy coats by density centrifugation over Ficoll Paque Plus (GE Healthcare) and screened for the presence of NKG2C^+ NK cell expansions by flow cytometry to have sufficient frequencies of single-positive cells for parallel assessment of activation and inhibition via HLA-E[47]. Total NK cells from donors with NKG2C^+ expansions (>10% NKG2A^-/NKG2C^+ NK cells) were enriched with CD56 microbeads (Miltenyi Biotec) and cryopreserved in FBS with 10% v/v DMSO. After thawing, NK cells were washed with complete medium, stained with antibodies and Fixable Viability Dye eFluor 780 (Thermo Fisher) for 15 min at 4 °C in PBS, sorted as viable CD56^+ CD3^− cells, and rested in complete media overnight. […] Brefeldin A and Monensin (BD Biosciences) were added after a 1 h culture period. After an additional 5 h, the stimulation was stopped by centrifugation at 4 °C. Cells underwent surface staining, followed by fixation and intracellular staining using Inside Stain Kit (Miltenyi Biotec). Samples were analyzed by flow cytometry on an LSR Fortessa (BD Biosciences). Inhibition of NKG2A^+ NK cells and activation of NKG2C^+ NK cells was assessed by gating on the respective single-positive populations (Supplemental Fig. 14). Antibodies are listed in Supplemental Table 1: anti-human CD56 PE/Dazzle 594 (1:200 dilution), CD3 APC-eFluor 780 (1:50 dilution), anti-human CD159a (NKG2A) Biotin REAfinity (1:50 dilution), anti-human CD159c (NKG2C) PE REAfinity (1:100 dilution), anti-human CD107a (LAMP-1) Alexa Fluor 488 (1:400 dilution), anti-human IFN-γ PE-Vio 770 REAfinity (1:50 dilution), anti-human TNF-α Brilliant Violet 605 (1:50 dilution), anti-human CCL3 (MIP-1α) REAfinity (1:25 dilution).

The subject of the next assay is NKG2A+/NKG2C- NK cells. Nature of the assay: NK cell activation assay with peptide-pulsed K562/HLA-E cells, NKG2A+/NKG2C- NK cells. As to conditions: K562/HLA-E target cells, 300 µM peptide ([…] µM BFAR263-271), E:T 2:1, 6 h; degranulation (CD107a), IFN-γ, TNF, CCL3; flow cytometry. The procedure: as §1, §2, §3

As for “SAPLKTRFL [UL120_71-79, AD169, divergent UL120 peptide of CMV strain AD169]”, the “stabilization of HLA-E surface expression” value in the assay on HLA-E was “weaker but detectable stabilization”. Moreover, in the assay with NKG2A-/NKG2C- NK cells, the “effect on activation of internal NKG2A-/NKG2C- control NK cells” value is reported as “negatively affect activation of all subsets”. Further, the “activating effects on NKG2C+ cells” value with NKG2A-/NKG2C+ NK cells is on record as “negatively affect activation of all subsets”. Moreover, in the assay on NKG2A+/NKG2C- NK cells, the “inhibitory effects on NKG2A+ cells” value is given as “negatively affect activation of all subsets”.
